In brackets after ≈: the same amount, converted by molar mass.
Key:
Type in all cases: cell-based
[1] = system: Escherichia coli SOL 90; assay: MIC, in vitro dilution method, Escherichia coli SOL 90 (Table III); settings: SOL90; Escherichia coli SOL 90; dilution method; read-out: MIC
Source text: (§1) The products of the invention have been studied as regards their pharmacological properties and, more especially, bacteriostatic action. This has been determined in vitro by the dilution method, and the study was on Gram negative strains.
(§2) Results, expressed in minimum inhibiting concentrations (MIC-- μg/ml), are collected in the following table (Table III).

[2] = system: Citrobacter RL 49; assay: MIC, in vitro dilution method, Citrobacter RL 49 (Table III); settings: RL49; Citrobacter RL 49; dilution method; read-out: MIC
Source text: as §1, §2

[3] = system: Proteus vulgaris RL 99 bis; assay: MIC, in vitro dilution method, Proteus vulgaris RL 99 bis (Table III); settings: RL99BIS; Proteus vulgaris RL 99 bis; dilution method; read-out: MIC
Source text: as §1, §2

[4] = system: Serratia RL 72; assay: MIC, in vitro dilution method, Serratia RL 72 (Table III); settings: RL72
Source text: as §1, §2

[5] = system: Klebsiella RO 30; assay: MIC, in vitro dilution method, Klebsiella RO 30 (Table III); settings: RO30; Klebsiella RO 30; dilution method; read-out: MIC
Source text: as §1, §2

[6] = system: Enterobacter RO 154; assay: MIC, in vitro dilution method, Enterobacter RO 154 (Table III); settings: RO154; Enterobacter RO 154; dilution method; read-out: MIC
Source text: as §1, §2

[7] = system: Pseudomonas RL 112; assay: MIC, in vitro dilution method, Pseudomonas RL 112 (Table III); settings: RL112
Source text: as §1, §2

| SMILES | MIC [1] [µg/mL] | MIC [2] [µg/mL] | MIC [3] [µg/mL] | MIC [4] [µg/mL] | MIC [5] [µg/mL] | MIC [6] [µg/mL] | MIC [7] [µg/mL] |
| --- | --- | --- | --- | --- | --- | --- | --- |
| CC(C)(O/N=C(\C(=O)NC1C(=O)N2C(C(=O)O)=C(COC(=O)c3cccc(NC(=O)CCN)c3)C[S+]([O-])C12)c1csc(N)n1)C(=O)O (stereo not drawn) [42 465] | ≤ 0.125 | ≤ 0.125 | ≤ 0.125 | 2 (≈ 2.89 µM) | 0.5 (≈ 0.723 µM) | 0.5 (≈ 0.723 µM) | 8 (≈ 11.6 µM) |
| CC(C)(ON=C(C(=O)NC1C(=O)N2C(C(=O)O)=C(COC(=O)c3ccc(CN)c(F)c3)C[S+]([O-])C12)c1csc(N)n1)C(=O)O (stereo not drawn) [42 581] | 0.125 (≈ 0.192 µM) | – | – | – | 0.125 (≈ 0.192 µM) | 2 (≈ 3.06 µM) | 4 (≈ 6.13 µM) |
| CCNCc1cccc(C(=O)OCC2=C(C(=O)O)N3C(=O)C(NC(=O)/C(=N\OC(C)(C)C(=O)O)c4csc(N)n4)C3[S+]([O-])C2)c1 (stereo not drawn) [42 538] | 0.5 (≈ 0.754 µM) | 0.25 (≈ 0.377 µM) | ≤ 0.125 | 0.5 (≈ 0.754 µM) | 0.25 (≈ 0.377 µM) | 0.25 (≈ 0.377 µM) | 8 (≈ 12.1 µM) |
| Cc1c(CN)cccc1C(=O)SCC1=C(C(=O)O)N2C(=O)C(NC(=O)C(=NOC3(C(=O)O)CCC3)c3csc(N)n3)C2[S+]([O-])C1 (stereo not drawn) [compound 42536] | 0.5 (≈ 0.739 µM) | 0.25 (≈ 0.369 µM) | ≤ 0.125 | 0.5 (≈ 0.739 µM) | 0.25 (≈ 0.369 µM) | 0.5 (≈ 0.739 µM) | 8 (≈ 11.8 µM) |
| CC(N)C(=O)Nc1nc(C(=O)OCC2=C(C(=O)O)N3C(=O)C(NC(=O)C(=NOC(C)(C)C(=O)O)c4csc(N)n4)C3[S+]([O-])C2)cs1 (stereo not drawn) [42 857] | 0.5 (≈ 0.716 µM) | – | – | – | 1 (≈ 1.43 µM) | 8 (≈ 11.4 µM) | 8 (≈ 11.4 µM) |
| NCC(=O)N1CCC(C(=O)SCC2=C(C(=O)O)N3C(=O)C(NC(=O)C(=NOC4(C(=O)O)CCC4)c4csc(N)n4)C3[S+]([O-])C2)CC1 (stereo not drawn) [compound 42674] | 1 (≈ 1.43 µM) | – | – | – | 0.5 (≈ 0.717 µM) | 2 (≈ 2.87 µM) | 8 (≈ 11.5 µM) |
| NCC(=O)Nc1ccc(C(=O)SCC2=C(C(=O)O)N3C(=O)C(NC(=O)C(=NOC4(C(=O)O)CCC4)c4csc(N)n4)C3[S+]([O-])C2)cc1 (stereo not drawn) [compound 42665] | 0.5 (≈ 0.708 µM) | – | – | – | 0.5 (≈ 0.708 µM) | 2 (≈ 2.83 µM) | 8 (≈ 11.3 µM) |
| Cc1cc(CN)ccc1C(=O)SCC1=C(C(=O)O)N2C(=O)C(NC(=O)C(=NOC(C)(C)C(=O)O)c3csc(N)n3)C2[S+]([O-])C1 (stereo not drawn) [compound 42850] | 0.5 (≈ 0.752 µM) | – | – | – | 0.25 (≈ 0.376 µM) | 2 (≈ 3.01 µM) | 8 (≈ 12 µM) |
| Cc1cc(C(=O)SCC2=C(C(=O)O)N3C(=O)C(NC(=O)C(=NOC(C)(C)C(=O)O)c4csc(N)n4)C3[S+]([O-])C2)ccc1CN (stereo not drawn) [compound 42661] | 0.5 (≈ 0.752 µM) | – | – | – | 0.25 (≈ 0.376 µM) | 1 (≈ 1.5 µM) | 8 (≈ 12 µM) |
| CNCc1ccc(C(=O)OCC2=C(C(=O)O)N3C(=O)C(NC(=O)C(=NOC(C)(C)C(=O)O)c4csc(N)n4)C3[S+]([O-])C2)cc1F (stereo not drawn) [42 582] | 0.25 (≈ 0.375 µM) | – | – | – | 0.25 (≈ 0.375 µM) | 2 (≈ 3 µM) | 8 (≈ 12 µM) |
| Cc1cc(NC(=O)CN)c(C)c(C(=O)OCC2=C(C(=O)O)N3C(=O)C(NC(=O)C(=NOC(C)(C)C(=O)O)c4csc(N)n4)C3[S+]([O-])C2)c1 (stereo not drawn) [42 814] | 0.5 (≈ 0.708 µM) | – | – | – | 0.25 (≈ 0.354 µM) | 8 (≈ 11.3 µM) | 8 (≈ 11.3 µM) |
| CC(C)(CN)C(=O)SCC1=C(C(=O)O)N2C(=O)C(NC(=O)C(=NOC(C)(C)C(=O)O)c3csc(N)n3)C2[S+]([O-])C1 (stereo not drawn) [compound 42663] | 4 (≈ 6.49 µM) | – | – | – | 1 (≈ 1.62 µM) | 4 (≈ 6.49 µM) | 8 (≈ 13 µM) |
| CC(C)(ON=C(C(=O)NC1C(=O)N2C(C(=O)O)=C(COC(=O)c3ccc(NC(=O)C4CCNCC4)cc3)C[S+]([O-])C12)c1csc(N)n1)C(=O)O (stereo not drawn) [42 815] | 0.125 (≈ 0.171 µM) | – | – | – | 0.25 (≈ 0.342 µM) | 8 (≈ 10.9 µM) | 8 (≈ 10.9 µM) |
| CNCC(=O)Nc1cccc(C(=O)OCC2=C(C(=O)O)N3C(=O)C(NC(=O)C(=NOC(C)(C)C(=O)O)c4csc(N)n4)C3[S+]([O-])C2)c1 (stereo not drawn) [42 583] | 1 (≈ 1.45 µM) | – | – | – | 0.5 (≈ 0.723 µM) | 4 (≈ 5.78 µM) | 8 (≈ 11.6 µM) |
| Cc1nc(NC(=O)CN)sc1C(=O)OCC1=C(C(=O)O)N2C(=O)C(NC(=O)C(=NOC(C)(C)C(=O)O)c3csc(N)n3)C2[S+]([O-])C1 (stereo not drawn) [42 690] | 0.5 (≈ 0.716 µM) | – | – | – | 0.5 (≈ 0.716 µM) | 8 (≈ 11.4 µM) | 4 (≈ 5.72 µM) |
| CNCC(=O)Nc1ccc(C(=O)OCC2=C(C(=O)O)N3C(=O)C(NC(=O)C(=NOC(C)(C)C(=O)O)c4csc(N)n4)C3[S+]([O-])C2)cc1 (stereo not drawn) [42 584] | 0.25 (≈ 0.361 µM) | – | – | – | 0.25 (≈ 0.361 µM) | 2 (≈ 2.89 µM) | 4 (≈ 5.78 µM) |
| Cc1cc(CN)ccc1C(=O)OCC1=C(C(=O)O)N2C(=O)C(NC(=O)C(=NOC(C)(C)C(=O)O)c3csc(N)n3)C2[S+]([O-])C1 (stereo not drawn) [42 848] | 0.125 (≈ 0.193 µM) | – | – | – | 0.125 (≈ 0.193 µM) | 2 (≈ 3.08 µM) | 4 (≈ 6.17 µM) |
| CC(C)(ON=C(C(=O)NC1C(=O)N2C(C(=O)O)=C(COC(=O)c3ccc(NC(=O)CCCN)cc3)C[S+]([O-])C12)c1csc(N)n1)C(=O)O (stereo not drawn) [42 688] | 0.125 (≈ 0.177 µM) | – | – | – | 0.25 (≈ 0.354 µM) | 4 (≈ 5.67 µM) | 4 (≈ 5.67 µM) |

Reference: patent publication US4656166A, “Antibiotic compounds derived from cephalosporins, process for their production and pharmaceutical compositions” (Sanofi, priority 1983, dated 1987)
